# Assay results: PubChem BioAssay AID2060499 (Molecular Pharmacology Branch, DTP, NCI, 2025)
# Tested on: 777334-354-R2-J4-PDC tumor spheroids with HUVEC/MSC, viability
# Assay: Anticancer human tumor 777334-354-R2-J4-PDC patient-derived pancreatic adenocarcinoma cell line growth inhibition [GQUAD]
# Settings: for IC50: curve of first compound; for viability, T/C: stronger effect = lower value
# How it was run: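 Multi-cell-type spheroids of tumor cells with HUVEC and mesenchymal stem cells, treated with drug combinations. Concentrations descend in half-log steps from near clinical Cmax, or from 10 microM where Cmax is unknown; viability read-out.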
# [1] = second compound 0.0316 µM, first compound 0.0316 µM
# [2] = second compound 0.0316 µM, first compound 0.316 µM
# [3] = second compound 0.1 µM, first compound 0.0316 µM
# [4] = second compound 0.1 µM, first compound 0.316 µM
# [5] = second compound 0.316 µM, first compound 0.0316 µM
# [6] = second compound 0.316 µM, first compound 0.316 µM
# [7] = second compound 1 µM, first compound 0.0316 µM
# [8] = second compound 1 µM, first compound 0.316 µM
# [9] = second compound 3.16 µM, first compound 0.0316 µM
# [10] = second compound 3.16 µM, first compound 0.316 µM
# [11] = second compound 10 µM, first compound 0.0316 µM
# [12] = second compound 10 µM, first compound 0.316 µM
# [13] = second compound 0.0316 µM, first compound 0.1 µM
# [14] = second compound 0.0316 µM, first compound 1 µM
# [15] = second compound 0.0316 µM, first compound 3.16 µM
# [16] = second compound 0.0316 µM, first compound 10 µM
# [17] = second compound 0.1 µM, first compound 0.1 µM
# [18] = second compound 0.1 µM, first compound 1 µM
# [19] = second compound 0.1 µM, first compound 3.16 µM
# [20] = second compound 0.1 µM, first compound 10 µM
# [21] = second compound 0.316 µM, first compound 0.1 µM
# [22] = second compound 0.316 µM, first compound 1 µM
# [23] = second compound 0.316 µM, first compound 3.16 µM
# [24] = second compound 0.316 µM, first compound 10 µM
# [25] = second compound 1 µM, first compound 0.1 µM
# [26] = second compound 1 µM, first compound 1 µM
# [27] = second compound 1 µM, first compound 3.16 µM
# [28] = second compound 1 µM, first compound 10 µM
# [29] = second compound 3.16 µM, first compound 0.1 µM
# [30] = second compound 3.16 µM, first compound 1 µM
# [31] = second compound 3.16 µM, first compound 3.16 µM
# [32] = second compound 3.16 µM, first compound 10 µM
# [33] = second compound 10 µM, first compound 0.1 µM
# [34] = second compound 10 µM, first compound 1 µM
# [35] = second compound 10 µM, first compound 3.16 µM
# [36] = second compound 10 µM, first compound 10 µM
# 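Note: spheroids exposed to compounds for 7 days before readout.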
structure (smiles),measurement,setting,value
CC[C@@]1(O)C(=O)OCc2c1cc1n(c2=O)Cc2cc3c(CN(C)C)c(O)ccc3nc2-1 + CN(C)c1ccc(Nc2c3ccc(NC(=O)CCN4CCCC4)cc3nc3cc(NC(=O)CCN4CCCC4)ccc23)cc1,IC50,second compound 0.0316 µM,130 nM
same,IC50,second compound 0.1 µM,157 nM
same,IC50,second compound 0.316 µM,153 nM
same,IC50,second compound 1 µM,163 nM
same,IC50,second compound 3.16 µM,106 nM
same,IC50,second compound 10 µM,140 nM
same,"viability, T/C","second compound 0.0316 µM, first compound 0.000999 µM",105%
same,"viability, T/C","second compound 0.0316 µM, first compound 0.00316 µM",110%
same,"viability, T/C","second compound 0.0316 µM, first compound 0.00999 µM",109%
same,"viability, T/C",[1],84.5%
same,"viability, T/C","second compound 0.0316 µM, first compound 0.0999 µM",56%
same,"viability, T/C",[2],34.7%
same,"viability, T/C","second compound 0.1 µM, first compound 0.000999 µM",106%
same,"viability, T/C","second compound 0.1 µM, first compound 0.00316 µM",89.2%
same,"viability, T/C","second compound 0.1 µM, first compound 0.00999 µM",103%
same,"viability, T/C",[3],88.8%
same,"viability, T/C","second compound 0.1 µM, first compound 0.0999 µM",57.7%
same,"viability, T/C",[4],38.5%
same,"viability, T/C","second compound 0.316 µM, first compound 0.000999 µM",77.1%
same,"viability, T/C","second compound 0.316 µM, first compound 0.00316 µM",90.2%
same,"viability, T/C","second compound 0.316 µM, first compound 0.00999 µM",95.1%
same,"viability, T/C",[5],79.1%
same,"viability, T/C","second compound 0.316 µM, first compound 0.0999 µM",60.4%
same,"viability, T/C",[6],33.2%
same,"viability, T/C","second compound 1 µM, first compound 0.000999 µM",98.8%
same,"viability, T/C","second compound 1 µM, first compound 0.00316 µM",95.9%
same,"viability, T/C","second compound 1 µM, first compound 0.00999 µM",100%
same,"viability, T/C",[7],88.1%
same,"viability, T/C","second compound 1 µM, first compound 0.0999 µM",57.8%
same,"viability, T/C",[8],39.6%
same,"viability, T/C","second compound 3.16 µM, first compound 0.000999 µM",83.7%
same,"viability, T/C","second compound 3.16 µM, first compound 0.00316 µM",94.2%
same,"viability, T/C","second compound 3.16 µM, first compound 0.00999 µM",98.8%
same,"viability, T/C",[9],83.6%
same,"viability, T/C","second compound 3.16 µM, first compound 0.0999 µM",51.4%
same,"viability, T/C",[10],31.9%
same,"viability, T/C","second compound 10 µM, first compound 0.000999 µM",79.3%
same,"viability, T/C","second compound 10 µM, first compound 0.00316 µM",89.9%
same,"viability, T/C","second compound 10 µM, first compound 0.00999 µM",67.4%
same,"viability, T/C",[11],73.4%
same,"viability, T/C","second compound 10 µM, first compound 0.0999 µM",55.3%
same,"viability, T/C",[12],35.1%
COc1cc(C2c3cc4c(cc3C(OC3OC5COC(C)OC5C(O)C3O)C3COC(=O)C23)OCO4)cc(OC)c1O (stereo not drawn) + CN(C)c1ccc(Nc2c3ccc(NC(=O)CCN4CCCC4)cc3nc3cc(NC(=O)CCN4CCCC4)ccc23)cc1,IC50,second compound 0.0316 µM,4940 nM
same,IC50,second compound 0.1 µM,4350 nM
same,IC50,second compound 0.316 µM,4030 nM
same,IC50,second compound 1 µM,2930 nM
same,IC50,second compound 3.16 µM,4710 nM
same,IC50,second compound 10 µM,3610 nM
same,"viability, T/C",[1],98.6%
same,"viability, T/C",[13],87.8%
same,"viability, T/C",[2],88.9%
same,"viability, T/C",[14],70.4%
same,"viability, T/C",[15],57.8%
same,"viability, T/C",[16],38.5%
same,"viability, T/C",[3],99.6%
same,"viability, T/C",[17],95.2%
same,"viability, T/C",[4],87.5%
same,"viability, T/C",[18],79%
same,"viability, T/C",[19],54%
same,"viability, T/C",[20],36%
same,"viability, T/C",[5],93.5%
same,"viability, T/C",[21],78.9%
same,"viability, T/C",[6],85.5%
same,"viability, T/C",[22],70.3%
same,"viability, T/C",[23],53.6%
same,"viability, T/C",[24],34.1%
same,"viability, T/C",[7],90.5%
same,"viability, T/C",[25],82%
same,"viability, T/C",[8],87.4%
same,"viability, T/C",[26],74.3%
same,"viability, T/C",[27],48.5%
same,"viability, T/C",[28],37.4%
same,"viability, T/C",[9],88%
same,"viability, T/C",[29],78.5%
same,"viability, T/C",[10],77.8%
same,"viability, T/C",[30],66.3%
same,"viability, T/C",[31],60.4%
same,"viability, T/C",[32],36.6%
same,"viability, T/C",[11],79%
same,"viability, T/C",[33],84.8%
same,"viability, T/C",[12],75.1%
same,"viability, T/C",[34],61%
same,"viability, T/C",[35],55%
same,"viability, T/C",[36],33.6%
COc1cccc2c1C(=O)c1c(O)c3c(c(O)c1C2=O)CC(O)(C(=O)CO)CC3OC1CC(N)C(O)C(C)O1 (stereo not drawn) + CN(C)c1ccc(Nc2c3ccc(NC(=O)CCN4CCCC4)cc3nc3cc(NC(=O)CCN4CCCC4)ccc23)cc1,IC50,second compound 0.0316 µM,909 nM
same,IC50,second compound 0.1 µM,841 nM
same,IC50,second compound 0.316 µM,783 nM
same,IC50,second compound 1 µM,679 nM
same,IC50,second compound 3.16 µM,633 nM
same,IC50,second compound 10 µM,858 nM
same,"viability, T/C",[1],109%
same,"viability, T/C",[13],84.4%
same,"viability, T/C",[2],74.2%
same,"viability, T/C",[14],49.3%
same,"viability, T/C",[15],25.2%
same,"viability, T/C",[16],9.52%
same,"viability, T/C",[3],100%
same,"viability, T/C",[17],85.3%
same,"viability, T/C",[4],71.2%
same,"viability, T/C",[18],47.1%
same,"viability, T/C",[19],24.5%
same,"viability, T/C",[20],13.8%
same,"viability, T/C",[5],107%
same,"viability, T/C",[21],78.9%
same,"viability, T/C",[6],70.1%
same,"viability, T/C",[22],47.9%
same,"viability, T/C",[23],23.6%
same,"viability, T/C",[24],14%
same,"viability, T/C",[7],89.7%
same,"viability, T/C",[25],74.7%
same,"viability, T/C",[8],66.5%
same,"viability, T/C",[26],42.9%
same,"viability, T/C",[27],23.2%
same,"viability, T/C",[28],12.2%
same,"viability, T/C",[9],83.7%
same,"viability, T/C",[29],76.5%
same,"viability, T/C",[10],55%
same,"viability, T/C",[30],48.4%
same,"viability, T/C",[31],25%
same,"viability, T/C",[32],15.2%
same,"viability, T/C",[11],77%
same,"viability, T/C",[33],78.2%
same,"viability, T/C",[12],64%
same,"viability, T/C",[34],50%
same,"viability, T/C",[35],22.3%
same,"viability, T/C",[36],14%
Nc1ccn(C2OC(CO)C(O)C2(F)F)c(=O)n1 (stereo not drawn) + CN(C)c1ccc(Nc2c3ccc(NC(=O)CCN4CCCC4)cc3nc3cc(NC(=O)CCN4CCCC4)ccc23)cc1,IC50,second compound 0.0316 µM,557 nM
same,IC50,second compound 0.1 µM,402 nM
same,IC50,second compound 0.316 µM,326 nM
same,IC50,second compound 1 µM,171 nM
same,IC50,second compound 3.16 µM,150 nM
same,IC50,second compound 10 µM,77.9 nM
same,"viability, T/C",[1],80.7%
same,"viability, T/C",[13],67.8%
same,"viability, T/C",[2],54.4%
same,"viability, T/C",[14],44.3%
same,"viability, T/C",[15],37.5%
same,"viability, T/C",[16],27.3%
same,"viability, T/C",[3],80.5%
same,"viability, T/C",[17],71.5%
same,"viability, T/C",[4],51.5%
same,"viability, T/C",[18],39.1%
same,"viability, T/C",[19],32.6%
same,"viability, T/C",[20],27.4%
same,"viability, T/C",[5],68.5%
same,"viability, T/C",[21],65.8%
same,"viability, T/C",[6],45.4%
same,"viability, T/C",[22],40.5%
same,"viability, T/C",[23],33.2%
same,"viability, T/C",[24],23.4%
same,"viability, T/C",[7],76.2%
same,"viability, T/C",[25],55.3%
same,"viability, T/C",[8],42.2%
same,"viability, T/C",[26],34.4%
same,"viability, T/C",[27],30.1%
same,"viability, T/C",[28],22.9%
same,"viability, T/C",[9],67.4%
same,"viability, T/C",[29],51.8%
same,"viability, T/C",[10],43.5%
same,"viability, T/C",[30],33.7%
same,"viability, T/C",[31],32.4%
same,"viability, T/C",[32],22.2%
same,"viability, T/C",[11],59.5%
same,"viability, T/C",[33],49.5%
same,"viability, T/C",[12],33.9%
same,"viability, T/C",[34],30.5%
same,"viability, T/C",[35],30.3%
same,"viability, T/C",[36],18.5%
